{"source": "patent US20060083794A1", "about": "“Use of an extract from the plant argania spinosa” (priority 2002, published 2006)", "system": "5-α-reductase", "experiment": "Metabolization of 14C testosterone to DHT in reconstructed epidermis (thin-layer chromatography, phosphoimager)", "assay_type": "cell-based, human", "settings": "Finasterid 10 μM; control = 100", "description": "• Epidermis SkinEthic (17 days, 0.63 cm^2) in culture, 37° C., 5% CO2 • Reference substance: Finasteride • Testosterone: [4-14-C]\nThe epidermis was precultivated for 24 hours on plates with 24 positions. The experiments with the products and the reference substance Finasterid (10 μm) were carried out three times (3 epidermises per experiment). After treatment for 24 hours, the media of the subepidermis were renewed and replaced by 300 μl of fresh culture medium. 100 μl of radioactively marked testosterone solution were applied to the upper surface (horny layer) of the epidermis (TO). After another 24 hours, the subepidermis medium was removed for analysis.\nThe steroids present in the culture medium were extracted for analysis of the metabolism and separated into their molecular derivatives by thin-layer chromatography (on silica gel). The quantity of transformed testosterone was determined by radioactive counting of the various spots using a phosphoimager."}
{"compound": "CC(C)(C)NC(=O)[C@H]1CC[C@H]2[C@@H]3CC[C@H]4NC(=O)C=C[C@]4(C)[C@H]3CC[C@]12C", "note": "[Finasterid, Finasteride]", "values": [{"measurement": "DHT formed in %", "value": 8, "unit": "%"}]}
